What all share (assay type): cell-based
One experiment has as its target T1, human TLR7 (Homo sapiens, UniProt Q9NYK1).
T1 construct: host or cells: HEK-Blue cells
T1 sequence (Q9NYK1 27-1049): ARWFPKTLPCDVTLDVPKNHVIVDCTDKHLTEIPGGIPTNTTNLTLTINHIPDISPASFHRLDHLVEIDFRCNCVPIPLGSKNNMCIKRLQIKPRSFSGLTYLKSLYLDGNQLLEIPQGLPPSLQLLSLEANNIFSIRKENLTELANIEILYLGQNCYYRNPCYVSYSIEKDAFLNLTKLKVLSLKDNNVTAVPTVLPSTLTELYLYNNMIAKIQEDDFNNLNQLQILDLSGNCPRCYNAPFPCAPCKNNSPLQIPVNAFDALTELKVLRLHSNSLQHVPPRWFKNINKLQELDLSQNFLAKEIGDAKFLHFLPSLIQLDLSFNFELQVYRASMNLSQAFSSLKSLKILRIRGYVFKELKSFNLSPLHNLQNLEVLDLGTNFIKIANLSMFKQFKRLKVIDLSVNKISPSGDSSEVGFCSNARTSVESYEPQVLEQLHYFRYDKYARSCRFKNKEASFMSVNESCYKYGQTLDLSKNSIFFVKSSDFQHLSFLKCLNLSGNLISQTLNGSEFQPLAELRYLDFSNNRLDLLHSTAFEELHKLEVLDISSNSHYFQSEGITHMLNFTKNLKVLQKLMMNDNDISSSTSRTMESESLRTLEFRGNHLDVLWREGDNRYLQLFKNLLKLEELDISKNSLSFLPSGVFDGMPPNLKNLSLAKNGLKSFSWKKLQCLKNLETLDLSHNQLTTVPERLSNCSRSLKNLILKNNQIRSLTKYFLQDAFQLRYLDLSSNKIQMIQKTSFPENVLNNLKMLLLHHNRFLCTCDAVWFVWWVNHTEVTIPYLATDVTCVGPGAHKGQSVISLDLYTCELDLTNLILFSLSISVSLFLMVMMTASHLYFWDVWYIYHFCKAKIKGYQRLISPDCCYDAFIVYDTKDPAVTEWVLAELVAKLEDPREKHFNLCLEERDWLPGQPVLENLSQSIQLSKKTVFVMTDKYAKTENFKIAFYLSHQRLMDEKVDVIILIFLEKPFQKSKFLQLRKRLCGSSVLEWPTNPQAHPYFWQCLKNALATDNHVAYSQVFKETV
As to the kind of experiment: TLR7 inhibition reporter assay (HEK-Blue cells, SEAP reporter, gardiquimod stimulation). As to conditions: HEK-Blue cells overexpressing human TLR7, SEAP reporter, gardiquimod 7.5 μM. In a few lines:
(§1)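 30 min RT cpd pre-incubation (0.05 nM–50 μM final dose response) → agonist: gardiquimod 7.5 μM / R848 15.9 μM / ODN2006 5 nM for TLR7/8/9 resp. → 22 h, 37° C → SEAP via detection medium. % inhibition vs agonist+DMSO and reference inhibitor controls.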
In general terms: A reporter such as luciferase makes a cellular process visible.

The target of the next experiment is T2, human TLR8 (Homo sapiens, UniProt Q9NR97).
T2 construct: host or cells: HEK-Blue cells
T2 sequence (Q9NR97 27-1041): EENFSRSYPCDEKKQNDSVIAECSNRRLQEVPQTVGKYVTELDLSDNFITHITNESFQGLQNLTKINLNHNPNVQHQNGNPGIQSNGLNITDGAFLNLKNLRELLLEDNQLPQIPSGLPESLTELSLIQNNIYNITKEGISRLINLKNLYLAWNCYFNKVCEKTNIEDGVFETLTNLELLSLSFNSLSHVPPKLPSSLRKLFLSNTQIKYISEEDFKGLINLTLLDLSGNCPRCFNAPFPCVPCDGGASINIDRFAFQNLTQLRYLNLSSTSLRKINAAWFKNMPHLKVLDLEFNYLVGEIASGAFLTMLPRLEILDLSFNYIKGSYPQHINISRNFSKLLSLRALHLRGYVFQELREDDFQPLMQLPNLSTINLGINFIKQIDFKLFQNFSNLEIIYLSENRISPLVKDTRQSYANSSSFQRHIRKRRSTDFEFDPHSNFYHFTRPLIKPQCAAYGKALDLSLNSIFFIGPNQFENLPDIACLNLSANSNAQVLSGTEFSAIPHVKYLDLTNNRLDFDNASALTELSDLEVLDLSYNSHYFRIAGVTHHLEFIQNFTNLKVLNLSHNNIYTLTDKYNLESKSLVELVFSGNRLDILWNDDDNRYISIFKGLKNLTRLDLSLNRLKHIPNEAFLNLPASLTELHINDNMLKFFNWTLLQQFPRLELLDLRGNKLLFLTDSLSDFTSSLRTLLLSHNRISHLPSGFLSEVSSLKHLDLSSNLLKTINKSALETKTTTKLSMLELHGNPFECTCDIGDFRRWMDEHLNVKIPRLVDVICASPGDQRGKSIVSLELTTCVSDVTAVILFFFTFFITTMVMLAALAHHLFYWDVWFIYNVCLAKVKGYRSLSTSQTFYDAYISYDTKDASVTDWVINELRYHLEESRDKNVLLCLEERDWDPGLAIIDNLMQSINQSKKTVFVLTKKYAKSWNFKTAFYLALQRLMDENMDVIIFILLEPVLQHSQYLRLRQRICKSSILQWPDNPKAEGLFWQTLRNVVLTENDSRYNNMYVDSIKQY
As to the kind of experiment: TLR8 inhibition reporter assay (HEK-Blue cells, SEAP reporter, R848 stimulation). The settings on record: HEK-Blue cells overexpressing human TLR8, SEAP reporter, R848 15.9 μM. In a few lines: as §1

For the next experiment, the target named is T3, human TLR9 (Homo sapiens, UniProt Q9NR96).
T3 construct: host or cells: HEK-Blue cells
T3 sequence (Q9NR96 26-1032): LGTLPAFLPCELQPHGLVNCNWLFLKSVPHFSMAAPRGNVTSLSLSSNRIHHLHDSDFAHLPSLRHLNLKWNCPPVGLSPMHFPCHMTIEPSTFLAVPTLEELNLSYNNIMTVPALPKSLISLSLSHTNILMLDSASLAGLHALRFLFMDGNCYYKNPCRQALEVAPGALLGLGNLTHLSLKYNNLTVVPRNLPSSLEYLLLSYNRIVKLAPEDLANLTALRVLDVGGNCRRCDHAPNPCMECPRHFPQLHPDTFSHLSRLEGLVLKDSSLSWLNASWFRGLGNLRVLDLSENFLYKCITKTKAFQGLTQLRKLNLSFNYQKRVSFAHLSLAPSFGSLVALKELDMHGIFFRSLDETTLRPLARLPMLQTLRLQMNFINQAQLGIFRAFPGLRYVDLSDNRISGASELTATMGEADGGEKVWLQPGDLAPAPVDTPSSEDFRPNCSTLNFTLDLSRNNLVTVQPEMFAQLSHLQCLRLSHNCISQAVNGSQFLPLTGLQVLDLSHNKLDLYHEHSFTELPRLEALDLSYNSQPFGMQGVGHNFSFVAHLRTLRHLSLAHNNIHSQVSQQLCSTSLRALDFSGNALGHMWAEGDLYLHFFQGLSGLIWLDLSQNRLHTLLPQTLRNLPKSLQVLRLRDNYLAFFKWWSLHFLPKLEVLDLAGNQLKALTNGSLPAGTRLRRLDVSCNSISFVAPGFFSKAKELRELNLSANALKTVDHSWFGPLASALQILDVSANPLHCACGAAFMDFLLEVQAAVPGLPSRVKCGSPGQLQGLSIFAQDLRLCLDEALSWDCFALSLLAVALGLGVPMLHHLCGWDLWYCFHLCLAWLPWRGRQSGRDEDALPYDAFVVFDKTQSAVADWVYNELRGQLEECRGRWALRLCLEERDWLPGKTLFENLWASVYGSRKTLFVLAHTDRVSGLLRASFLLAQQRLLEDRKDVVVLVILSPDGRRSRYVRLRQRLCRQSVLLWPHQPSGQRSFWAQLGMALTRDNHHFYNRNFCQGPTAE
As to the kind of experiment: TLR9 inhibition reporter assay (HEK-Blue cells, SEAP reporter, ODN2006 stimulation). The settings on record: HEK-Blue cells overexpressing human TLR9, SEAP reporter, ODN2006 5 nM. Summed up:
as §1

The results in this text go back to patent US20230117470A1, “SUBSTITUTED PYRAZOLE COMPOUNDS AS TOLL RECEPTOR INHIBITORS” (BRISTOL-MYERS SQUIBB COMPANY, priority 2019, published 2023).

The structures appear in SMILES notation.

The IC50 is the concentration that inhibits the measured activity by half. In the case of `Cc1cc(-c2[nH]nc(C(=O)NC3CCN(CC(C)(C)O)CC3)c2C(C)C)cn2ncnc12` [Example 138], the values for the half-inhibitory concentration (IC50) at human TLR7, against human TLR8 and at human TLR9 were 0.00093 µM, 0.00396 µM and 14.8 µM, respectively.
With `Cc1cc(-c2[nH]nc(C(=O)N(C)CCCN(C)C)c2C(C)C)cn2ncnc12` [Example 24], the figures for the IC50 at human TLR7, against human TLR8 and on human TLR9 were 0.0434 µM, 0.0125 µM and 0.793 µM, respectively.
With `Cc1cc(-c2[nH]nc(-c3ncc4c(n3)CCN(C)C4)c2C(C)C)cn2ncnc12` [Example 248], the IC50 against human TLR7 was 0.00833 µM; at human TLR8, 0.012 µM; against human TLR9, 14 µM.
As for `Cc1cc(-c2[nH]nc(C3CCN(C(=O)CCN(C)C)CC3)c2C(C)C)cn2ncnc12` [Example 208, 3-(dimethylamino)-1-(4-(4-isopropyl-5-(8-methyl-[1,2,4]triazolo[1,5-a]pyridin-6-yl)-1H-pyrazol-3-yl)piperidin-1-yl)propan-1-one], the figures for the 50% inhibitory concentration (IC50) on human TLR7, against human TLR8 and on human TLR9 were 0.001 µM, 0.00052 µM and 20 µM, respectively.
Consider `Cc1cc(-c2[nH]nc(C(=O)NC3CCN(Cc4ncn(C)n4)CC3)c2C(C)C)cn2ncnc12` [Example 158], for which the values for the 50% inhibitory concentration (IC50) against human TLR7, at human TLR8 and against human TLR9 were 0.00895 µM, 0.031 µM and 14.3 µM, respectively.
Regarding `Cc1cc(-c2[nH]nc(-c3ccc4c(c3)CCNC4=O)c2C(C)C)cn2ncnc12` [Example 215], the IC50 against human TLR7 came to 0.0023 µM; against human TLR8 it was 0.006 µM; on human TLR9 it was 15 µM.
`COc1cc(-c2[nH]nc(-c3ccc(C4CCN(CC(C)(C)O)CC4)cn3)c2C(C)C)cn2ncnc12` [Example 391]: the IC50 was 0.102 µM against human TLR7, 0.118 µM against human TLR8 and more than 50 µM against human TLR9.
As to `Cc1cc(-c2[nH]nc(-c3ccc(N4CCN(CC(C)(C)C)CC4)cc3)c2C(C)C)cn2ncnc12` [Example 408], the IC50 was 0.0474 µM at human TLR7, 0.168 µM on human TLR8 and more than 50 µM against human TLR9.
For `Cc1cc(-c2[nH]nc(C(=O)N[C@H]3CC[C@H](NC(C)CC(C)(C)C)CC3)c2C(C)C)cn2ncnc12` (stereo partly drawn) [Example 120], the figures for the half-inhibitory concentration (IC50) against human TLR7, against human TLR8 and against human TLR9 were 0.00419 µM, 0.0167 µM and more than 50 µM, respectively.
Regarding `Cc1cc(-c2[nH]nc(C(=O)NC3CCN(C(=O)OC(C)(C)C)CC3)c2C(C)C)cn2ncnc12` [Example 1, tert-butyl 4-(4-isopropyl-5-(8-methyl-[1,2,4]triazolo[1,5-a]pyridin-6-yl)-1H-pyrazole-3-carboxamido)piperidine-1-carboxylate], the IC50 against human TLR7 was 0.00201 µM; against human TLR8, 0.00814 µM; on human TLR9 it was 0.76 µM.
For `CCN(CC)CC(=O)N1CCC(c2cnc(-c3n[nH]c(-c4cc(OC)c5ncnn5c4)c3C(C)C)cn2)CC1` [Example 404], the half-inhibitory concentration (IC50) against human TLR7 is 0.0436 µM; against human TLR8, 0.124 µM; against human TLR9, more than 50 µM.
The corresponding values for `COc1cc(-c2[nH]nc(-c3ccc(C4CCN(CC(=O)N(C)C)CC4)cn3)c2C(C)C)cn2ncnc12` [Example 389, 2-(4-(6-(4-isopropyl-5-(8-methoxy-[1,2,4]triazolo[1,5-a]pyridin-6-yl)-1H-pyrazol-3-yl)pyridin-3-yl)piperidin-1-yl)-N,N-dimethylacetamide] are 0.0503 µM, 0.168 µM and 37.1 µM.
The corresponding values for `Cc1cc(-c2[nH]nc(C3CCC(N4CCN(C)CC4)CC3)c2C(C)C)cn2ncnc12` (single isomer, unassigned) [Example 287] are 0.0133 µM, 0.00054 µM and 29.2 µM.
As to `Cc1cc(-c2[nH]nc(-c3cnc(C4CCNCC4)nc3)c2C(C)C)cn2ncnc12` [Example 343], the values for the IC50 against human TLR7, against human TLR8 and against human TLR9 were 0.0241 µM, 0.0033 µM and more than 50 µM, respectively.
As to `CNC(=O)CN1CCc2cc(-c3n[nH]c(-c4cc(C)c5ncnn5c4)c3C(C)C)ccc2C1` [Example 273], the half-inhibitory concentration (IC50) was determined as 0.0137 µM at human TLR7, 0.0265 µM on human TLR8 and 5.55 µM against human TLR9.
